Target: ITK enzyme (ITK FL, N-Flag and C-His tagged) (Homo sapiens (Human), UniProt Q08881)
Experiment: ITK enzyme assay (IL-2-inducible T-cell kinase activity)
Assay type: biochemical
Settings: geometric mean of count n
Description: IL-2-Inducible T-Cell Kinase (ITK) Activity, IC50 (nM)
ITK activity was determined by measuring the effect of a test compound in an ITK enzyme assay.
1.0 M HEPES Buffer pH 7.5 solution was prepared as follows: 238.3 g HEPES free acid (Sigma) and 800 mL of water were combined, and the mixture was stirred until complete dissolution. The pH was adjusted to 7.5 via titration with 5N NaOH and the volume adjusted to 1000 mL. The solution was filtered and sterilized.
ITK assay buffer was prepared as follows: 50 mL of HPLC-grade water was treated with 2 mL of 1.0 M HEPES Buffer, 500 μL of 2% Gelatin (Sigma), 1.0 mL of aqueous MgCl2 solution (1.0 M), and 1.0 mL of aqueous glutathione solution (0.5 M), and the solution was mixed. The solution was brought to 99 mL in a graduated cylinder by addition of water and sterilized through a 0.2 μm filter. 0.1 mL of Brij-35™ Surfact-Amps™ Detergent Solution (10% w/v aqueous solution, ThermoFisher) and 1.0 mL of ATP (Teknova, 100 mM) were added and the solution was mixed.
The resulting solution was stored on ice. 30 Minutes prior to use, the enzyme solution was removed from ice and equilibrated to RT by incubation in a RT water bath.
Preparation of 4×ITK substrate solution was as follows: 50 mL of ITK assay buffer was treated with 100 μL of BTK peptide (China Peptide Company, 2 mM stock solution in DMSO). The tube was capped, mixed by gently inverting the tube, and then stored on ice. 30 Minutes prior to use, the substrate solution was removed from ice and equilibrated to RT by incubation in a RT water bath.
At the time of assay, 7.5 μL of the 1.33×ITK enzyme solution was added to plate wells containing 0.1 μL of varying concentrations of test compound in DMSO. The plate was incubated 30 min at RT. The plate wells were each treated with 2.5 uL of the 4×ITK substrate solution and the plate was sealed (TopSeal™, Perkin Elmer). The plate was spun at 1000 rpm for 30 sec and then incubated for 60 min at RT. The seal was removed, and each well was treated with 10 μL of Stop/Detect Buffer (20 mM HEPES pH 7.5, 0.01% gelatin, 1 nM LANCE PT66 (Perkin Elmer), 16.5 μg/ml Surelight APC (Perkin Elmer), 10 mM EDTA, 250 mM NaCl). The plate was again covered and was spun at 1000 rpm for 30 seconds. The plate was allowed to incubate overnight at RT and in a closed carrier to reduce dehydration. The seal was removed, and the fluorescence was read with a plate reader with an excitation wavelength of […] and an emission wavelength of 615 nm.

ITK enzyme (ITK FL, N-Flag and C-His tagged), sequence (Q08881 whole entry): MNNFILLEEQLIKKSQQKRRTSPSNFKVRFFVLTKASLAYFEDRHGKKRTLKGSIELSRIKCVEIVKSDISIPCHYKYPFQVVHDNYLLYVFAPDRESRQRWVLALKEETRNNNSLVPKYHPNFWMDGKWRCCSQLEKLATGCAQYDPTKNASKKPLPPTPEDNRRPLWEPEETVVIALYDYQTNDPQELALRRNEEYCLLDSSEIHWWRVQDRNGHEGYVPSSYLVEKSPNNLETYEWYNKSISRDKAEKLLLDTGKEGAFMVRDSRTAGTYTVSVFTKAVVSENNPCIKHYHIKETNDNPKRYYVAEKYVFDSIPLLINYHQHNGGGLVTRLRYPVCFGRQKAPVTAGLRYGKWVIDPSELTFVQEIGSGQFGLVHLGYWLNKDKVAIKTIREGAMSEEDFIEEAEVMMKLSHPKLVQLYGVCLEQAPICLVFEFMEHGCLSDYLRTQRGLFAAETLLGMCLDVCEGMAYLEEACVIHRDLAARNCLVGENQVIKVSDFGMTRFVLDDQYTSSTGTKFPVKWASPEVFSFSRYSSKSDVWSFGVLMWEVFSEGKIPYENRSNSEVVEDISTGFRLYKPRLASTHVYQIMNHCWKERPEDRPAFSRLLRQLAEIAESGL

Which IC50 does the source give for `CN(C(=O)CC1CCOCC1)c1ccc2[nH]c(-c3n[nH]c4c3C[C@@H]3C[C@]3(C)C4)nc2c1` [Example 10, N-methyl-N-(2-((4aS,5aR)-5a-methyl-1,4,4a,5,5a,6-hexahydrocyclopropa[f]indazol-3-yl)-1H-benzo[d]imidazol-5-yl)-2-(tetrahydro-2H-pyran-4-yl)acetamide] here?
The IC50 was 7 nM.

Which IC50 does the source give for `CCN(C(=O)[C@H](C)N1CCOCC1)c1cc2nc(-c3n[nH]c4c3C[C@@H]3C[C@]3(C)C4)[nH]c2cc1C` [Example 6, (S)—N-ethyl-N-(6-methyl-2-((4aS,5aR)-5a-methyl-1,4,4a,5,5a,6-hexahydrocyclopropa[f]indazol-3-yl)-1H-benzo[d]imidazol-5-yl)-2-morpholinopropanamide] here?
Its IC50 is 11 nM.

For `Cc1cc2[nH]c(-c3n[nH]c4c3C[C@@H]3C[C@]3(C)C4)nc2cc1N(C)C(=O)CN1CCO[C@H](CO)C1` [Example 26, 2-((S)-2-(hydroxymethyl)morpholino)-N-methyl-N-(6-methyl-2-((4aS,5aR)-5a-methyl-1,4,4a,5,5a,6-hexahydrocyclopropa[f]indazol-3-yl)-1H-benzo[d]imidazol-5-yl)acetamide], which IC50 is on record?
The IC50 was 12 nM.

How did the IC50 turn out when `C[C@@H](C(=O)N(C)c1cc(Cl)c2[nH]c(-c3n[nH]c4c3C[C@@H]3C[C@]3(C)C4)nc2c1)N1CCOCC1` [Example 43, (S)—N-(7-chloro-2-((4aS,5aR)-5a-methyl-1,4,4a,5,5a,6-hexahydrocyclopropa[f]indazol-3-yl)-1H-benzo[d]imidazol-5-yl)-N-methyl-2-morpholinopropanamide] was run?
Its IC50 is 16 nM.

Which IC50 does the source give for `COCc1cc(N(C)C(=O)[C@H](C)N2CCOCC2)cc2nc(-c3n[nH]c4c3C[C@@H]3C[C@]3(C)C4)[nH]c12` [Example 42, (S)—N-(7-(methoxymethyl)-2-((4aS,5aR)-5a-methyl-1,4,4a,5,5a,6-hexahydrocyclopropa[f]indazol-3-yl)-1H-benzo[d]imidazol-5-yl)-N-methyl-2-morpholinopropanamide] here?
The IC50 was 38 nM.

Which IC50 does the source give for `CCN(C(=O)[C@H](C)N1CCOCC1)c1cc(F)c2[nH]c(-c3n[nH]c4c3C[C@@H]3C[C@]3(C)C4)nc2c1` [Example 16, (S)—N-ethyl-N-(7-fluoro-2-((4aS,5aR)-5a-methyl-1,4,4a,5,5a,6-hexahydrocyclopropa[f]indazol-3-yl)-1H-benzo[d]imidazol-5-yl)-2-morpholinopropanamide] here?
Its IC50 is 5 nM.

Which IC50 does the source give for `Cc1cc2[nH]c(-c3n[nH]c4c3C[C@@H]3C[C@]3(C)C4)nc2cc1N(C)C(=O)CN1CCOCC1` [Example 34, N-Methyl-N-(6-methyl-2-((4aS,5aR)-5a-methyl-1,4,4a,5,5a,6-hexahydrocyclopropa[f]indazol-3-yl)-1H-benzo[d]imidazol-5-yl)-2-morpholinoacetamide] here?
The IC50 was 10 nM.

How did the IC50 turn out when `C[C@@H](C(=O)N(C)c1ccc2[nH]c(-c3n[nH]c4c3C[C@@H]3C[C@]3(C)C4)nc2c1)N1CCOCC1` [Example 14, (S)—N-methyl-N-(2-((4aS,5aR)-5a-methyl-1,4,4a,5,5a,6-hexahydrocyclopropa[f]indazol-3-yl)-1H-benzo[d]imidazol-5-yl)-2-morpholinopropanamide] was run?
Its IC50 is 3 nM.

How did the IC50 turn out when `Cc1cc2[nH]c(-c3n[nH]c4c3C[C@@H]3C[C@]3(C)C4)nc2cc1N(C)C(=O)CN1CCOC(C)(C)C1` [Example 29, 2-(2,2-Dimethylmorpholino)-N-methyl-N-(6-methyl-2-((4aS,5aR)-5a-methyl-1,4,4a,5,5a,6-hexahydrocyclopropa[f]indazol-3-yl)-1H-benzo[d]imidazol-5-yl)acetamide] was run?
Its IC50 is 12 nM.

With `Cc1cc(N(C)C(=O)[C@H](C)N2CCOCC2)cc2nc(-c3n[nH]c4c3C[C@@H]3C[C@]3(C)C4)[nH]c12` [Example 50, (S)—N-methyl-N-(7-methyl-2-((4aS,5aR)-5a-methyl-1,4,4a,5,5a,6-hexahydrocyclopropa[f]indazol-3-yl)-1H-benzo[d]imidazol-5-yl)-2-morpholinopropanamide] as the compound, how does the IC50 read?
Its IC50 is 16 nM.

With `Cc1cc2[nH]c(-c3n[nH]c4c3C[C@@H]3C[C@]3(C)C4)nc2cc1NC(=O)[C@H](C)N1CCOCC1` [Example 52, (S)—N-(6-methyl-2-((4aS,5aR)-5a-methyl-1,4,4a,5,5a,6-hexahydrocyclopropa[f]indazol-3-yl)-1H-benzo[d]imidazol-5-yl)-2-morpholinopropanamide] as the compound, how does the IC50 read?
Its IC50 is 121 nM.

For `Cc1cc2[nH]c(-c3n[nH]c4c3C[C@@H]3C[C@]3(C)C4)nc2cc1N(C)C(=O)[C@H](C)C1CCOCC1` [Example 4, (R)—N-methyl-N-(6-methyl-2-((4aS,5aR)-5a-methyl-1,4,4a,5,5a,6-hexahydrocyclopropa[f]indazol-3-yl)-1H-benzo[d]imidazol-5-yl)-2-(tetrahydro-2H-pyran-4-yl)propanamide], which IC50 is on record?
The IC50 was 3 nM.

For `C[C@@H](C(=O)N(C)c1cc(F)c2[nH]c(-c3n[nH]c4c3C[C@@H]3C[C@]3(C)C4)nc2c1)C1CCOCC1` [Example 12, (R)—N-(7-fluoro-2-((4aS,5aR)-5a-methyl-1,4,4a,5,5a,6-hexahydrocyclopropa[f]indazol-3-yl)-1H-benzo[d]imidazol-5-yl)-N-methyl-2-(tetrahydro-2H-pyran-4-yl)propanamide], which IC50 is on record?
Its IC50 is 3 nM.

Which IC50 does the source give for `C[C@@H](C(=O)N(C)c1cc(Br)c2[nH]c(-c3n[nH]c4c3C[C@@H]3C[C@]3(C)C4)nc2c1)N1CCOCC1` [Example 37, (S)—N-(7-bromo-2-((4aS,5aR)-5a-methyl-1,4,4a,5,5a,6-hexahydrocyclopropa[f]indazol-3-yl)-1H-benzo[d]imidazol-5-yl)-N-methyl-2-morpholinopropanamide] here?
Its IC50 is 9 nM.

Which IC50 does the source give for `C[C@@H](C(=O)N(C)c1cc(CO)c2[nH]c(-c3n[nH]c4c3C[C@@H]3C[C@]3(C)C4)nc2c1)N1CCOCC1` [Example 45, (S)—N-(7-(hydroxymethyl)-2-((4aS,5aR)-5a-methyl-1,4,4a,5,5a,6-hexahydrocyclopropa[f]indazol-3-yl)-1H-benzo[d]imidazol-5-yl)-N-methyl-2-morpholinopropanamide] here?
The IC50 was 17 nM.

How did the IC50 turn out when `Cc1cc2[nH]c(-c3n[nH]c4c3C[C@@H]3C[C@]3(C)C4)nc2cc1N(C)C(=O)CN1CCO[C@@H](C)C1` [Example 31, N-Methyl-N-(6-methyl-2-((4aS,5aR)-5a-methyl-1,4,4a,5,5a,6-hexahydrocyclopropa[f]indazol-3-yl)-1H-benzo[d]imidazol-5-yl)-2-((S)-2-methylmorpholino)acetamide] was run?
The IC50 was 13 nM.

`C[C@@H](C(=O)N(C)c1cc2nc(-c3n[nH]c4c3C[C@@H]3C[C@]3(C)C4)[nH]c2cc1Br)N1CCOCC1` [Example 20, (S)—N-(6-bromo-2-((4aS,5aR)-5a-methyl-1,4,4a,5,5a,6-hexahydrocyclopropa[f]indazol-3-yl)-1H-benzo[d]imidazol-5-yl)-N-methyl-2-morpholinopropanamide] was tested. Which IC50 did it give?
The IC50 was 5 nM.

With `COc1cc2[nH]c(-c3n[nH]c4c3C[C@@H]3C[C@]3(C)C4)nc2cc1N(C)C(=O)[C@H](C)N1CCOCC1` [Example 19, (S)—N-(6-methoxy-2-((4aS,5aR)-5a-methyl-1,4,4a,5,5a,6-hexahydrocyclopropa[f]indazol-3-yl)-1H-benzo[d]imidazol-5-yl)-N-methyl-2-morpholinopropanamide] as the compound, how does the IC50 read?
The IC50 was 9 nM.

`COCCOc1cc2[nH]c(-c3n[nH]c4c3C[C@@H]3C[C@]3(C)C4)nc2cc1N(C)C(=O)[C@H](C)N1CCOCC1` [Example 49, (S)—N-(6-(2-methoxyethoxy)-2-((4aS,5aR)-5a-methyl-1,4,4a,5,5a,6-hexahydrocyclopropa[f]indazol-3-yl)-1H-benzo[d]imidazol-5-yl)-N-methyl-2-morpholinopropanamide] was tested. Which IC50 did it give?
Its IC50 is 12 nM.

Source: patent US20230280220A1, “Benzimidazole Derivative Compounds and Uses Thereof” (Pfizer Inc., priority 2019, published 2023)
